Laboratory results taken from patent US11554138B2, “Bismuth(III) complexes as adjuvants in the treatment of cancer using platinum-based chemotherapy” (THE UNIVERSITY OF HONG KONG, priority 2015, dated 2023).

Key:
[1] = tested on: HK-2 (human kidney proximal tubular cell); assay: XTT cell proliferation assay, protection against cisplatin cytotoxicity, HK-2; assay type: cell-based
Experimental: HK-2 cells treated with culture medium served as a control. The respective survival rate was measured by cell proliferation kit XTT. All data are in triplicates.
(§1) To evaluate the in vitro protection effect of test bismuth(III) complexes against cisplatin stress, two nontumorigenic normal human cell lines, HK-2 (human kidney proximal tubular cell) and MIHA (human hepatocyte cell) are incorporated herein for cell proliferation kit II XTT assay.
(§2) The XTT assay was carried out according to the manufacturer's instruction (Roche Diagnostics, USA). Typically, 1-2×10^4 cells per well were grown in flat-bottom 96-well plates at 37° C. for an overnight under a humidified atmosphere of 5% CO2. Cells pellets were washed with PBS and treated with bismuth(III) complexes at various concentrations (1-100 μM) for 2 hours prior to the exposure to cisplatin (10 μM and 100 μM for HK-2 and MIHA cell line, respectively) for 2 days. Cells grown under culture medium alone were used as a negative control. After a fixed incubation time, 50 μl of the XTT labeling mixture was added to each well and the cells were incubated for 2 hours. The formation of formazan dyes, produced only by metabolic active cells, was detected spectrophotometrically at 490 nm.

[2] = tested on: MIHA (human hepatocyte cell); assay: XTT cell proliferation assay, protection against cisplatin cytotoxicity, MIHA; assay type: cell-based
Experimental: MIHA cells treated with culture medium served as a control. The respective survival rate was measured by cell proliferation kit XTT. All data are in triplicates.
as §1, §2

female BALB/c mice = assay: Survival of cisplatin-treated mice (cisplatin induced nephrotoxicity); assay type: in vivo; details: 50 mg/kg orally Day -2, -1, 0, 2, 4; cisplatin 30 mg/kg i.p. Day 0; n=8
Experimental: FIG. 5 Provides survival curves of cisplatin-treated mice with pretreatment of Bi-L1, Bi-L12 and BicitZ, respectively, showing the protective role of bimusth(III) complexes on cisplatin induced nephrotoxicity. All bismuth complexes (50 mg/kg) were administered orally on Day −2, Day −1, Day 0, Day 2 and Day 4. Cisplatin (30 mg/kg) was I.P. injected on Day 0. […] (Log-rank (Mantel-Cox) test, ***P=0.0004)

[3] = highly dependent on pH and ionic strength
[4] = tested on: SKNLP neuroblastoma cells; assay: Cisplatin anti-tumor activity in SKNLP neuroblastoma tumor-bearing mice
Experimental: 0.2 Million SKNLP neuroblastoma cells transfected with luminescent plasmid were inoculated into the adrenal gland of SCID beige mice. […] Cisplatin (7.5 mg/kg) was i.p. injected at Day 0, Day 7 and Day 14. Tumor growth was monitored by luminescent of the transfected tumor cells.
SKNLP neuroblastoma cells (˜2×10^5 cells) were transfected with luminescent plasmid were inoculated into the adrenal gland of BALB/c nude mice. […] Cisplatin (7.5 mg/kg) was i.p. injected on Day 0, and Day 7. Tumor growth was monitored by luminescent of the transfected tumor cells.
To evaluate whether Bi(III) complexes affect cisplatin's in vivo anti-tumor activity, SKNLP neuroblastoma cells transfected with luminescent plasmid were implanted into mice.

testicular cancer = details: cited from earlier work

| Compound | increase of cell viability when co-treated with cisplatin ([1]; bismuth(III) complex 1-100 μM 2 hours prior to cisplatin 10 μM for 2 days, XTT) [%] | increase of cell viability when co-treated with cisplatin ([2]; bismuth(III) complex 1-100 μM 2 hours prior to cisplatin 100 μM for 2 days, XTT) [%] | survival rate of cisplatin-treated mice (Kaplan-Meier) (female BALB/c mice) | solubility of the complex in water [3] | effect on cisplatin's anti-cancer activity in tumor engrafted mice ([4]; SCID beige mice, oral 50 mg/Kg Day -1, 0 and every two days, cisplatin 7.5 mg/kg Day 0, 7, 14) | interference on cisplatin's chemotherapeutic effect ([4]; pretreatment at 100 mg/kg, cisplatin 7.5 mg/Kg, SCID beige tumor-bearing mice) | SKNLP tumor cells metastases in lung and liver (histology) ([4]; same experiments as FIG. 7 and FIG. 8, vs control and cisplatin alone) | cells survived after exposure to cisplatin only ([1]; cisplatin 10 μM, 2 days) | cells survived after exposure to cisplatin only ([2]; cisplatin 100 μM, 2 days) | overall cure rate (testicular cancer) |
| --- | --- | --- | --- | --- | --- | --- | --- | --- | --- | --- |
| bismuth(III) zinc(II) citrate complex [BicitZ] | 16.7 | 28.5 | higher survival rate | over 100 mM | negligible effects | no interference | delays SKNLP tumor cells metastases | – | – | – |
| N.N.[Cl][Pt][Cl] [cisplatin, cis-[PtCl2(NH3)2], reference compound] | – | – | – | – | – | – | – | Less than 40% | Less than 40% | over 90% |
